Our source for the IC50, EC (100% TGF-beta3 activity) and EC50 values is patent US9493487B2, “3-(1H-imidazo[4,5-C]pyridin-2-YL)-1H-pyrazolo[3,4-B]pyridine and therapeutic uses thereof” (Samumed, LLC, priority 2014, dated 2016).

pEC50, pIC50: −log10 of the molar value.

Common to all, as to format: cell-based
Experiment [1] has as its system Wnt activity (Sp5-Luc reporter, SW480 colon carcinoma cells). Briefly: Sp5-Luc Wnt reporter gene assay in SW480 colon carcinoma cells. Particulars: Homo sapiens; SW480 cells stably expressing Sp5-Luc reporter; 42 h incubation; BrightGlo luminescence normalized to DMSO. Summed up: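 IC50 values come from variable-slope four-parameter fits of luciferase signal normalized to DMSO wells. Stable Sp5-Luc reporter SW480 colon carcinoma cells were exposed to compounds in a 3-fold dilution series (source plates from 10 mM stock) for forty-two hours at 37 °C.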
Background: A reporter such as luciferase makes a cellular process visible.

For experiment [2], the system named is primary human mesenchymal stem cells (hMSCs). The experiment is described as follows: Chondrogenesis induction screen in primary human mesenchymal stem cells (nodule count, Rhodamine B/Nile Red). Particulars: 144 h, 6 days, concentration required to induce chondrogenesis equivalent to TGF-β3 (10 ng/mL), read-out: Conc (nM) of 100% TGF-β3 activity. Here is the method: The above synthesized compounds were screened using primary human mesenchymal stem cells (hMSCs) to determine their ability to induce chondrogenesis (process by which cartilage is developed).
Primary human mesenchymal stem cells (hMSCs) were purchased from Lonza (Walkersville, Md.) and expanded in Mesenchymal Stem Cell Growth Media (Lonza). Cells between passage 3 and 6 were used for the experiments.
Each compound was dissolved in DMSO as a 10 mM stock and used to prepare compound source plates. Serial dilution (1:3, 6-point dose-response curves from 2700 nM to 10 nM) and compound transfer was performed using the ECHO 550 (Labcyte, Sunnyvale, Calif.) into 96-well clear bottom assay plates (Greiner Bio-One) with appropriate DMSO backfill for a final DMSO concentration of 0.03%. hMSCs were plated at 20,000 cells/well in 250 μL/well Incomplete Chondrogenic Induction Medium (Lonza; DMEM, dexamethasone, ascorbate, insulin-transferrin-selenium [ITS supplement], gentamycin-amphotericin [GA-1000], sodium pyruvate, proline and L-glutamine). TGF-β3 (10 ng/mL) was used as a positive control for differentiation while negative control wells were treated with 75 nL DMSO for normalization and calculating EC50 values. Cells were incubated at 37° C. and 5% CO2 for 6 days. To image chondrogenic nodules, the cells were fixed using 4% formaldehyde (Electron Microscopy Sciences), and stained with 2 μg/mL Rhodamine B (Sigma-Aldrich) and 20 μM Nile Red (Sigma-Aldrich) [Johnson K., et. al, A Stem Cell-Based Approach to Cartilage Repair, Science, (2012), 336(6082), 717-721]. The nodules imaged (4 images per well at 4× magnification) by excitation at 531 nm and emission at 625 nm and quantified using the CellInsight CX5 (Thermo Scientific). Number of nodules in each well was normalized to the average of 3 DMSO treated wells on the same plate using Excel (Microsoft Inc.). The normalized averages (fold change over DMSO) of 3 replicate wells for each compound concentration were calculated. Due to solubility limitations of some of the compounds, curve fitting was incomplete leading to inaccurate EC50 determinations.
Using TGF-β3 as a positive control, the concentration of test compounds required to induce equivalent levels of chondrogenesis is reported. In addition, the maximum activity of each compound and the respective dose that each compound reached maximum chondrogenesis activity is reported.

Experiment [3] concerns primary human fibroblasts derived from IPF patients (LL29 cells). The experiment is described as follows: Inhibition of TGF-β1-induced fibrosis (αSMA staining) in primary human fibroblasts from IPF patients. The settings on record: Fibroblast, 96 h, TGF-β1 20 ng/mL, 4 days, 11-point dose-response 10 μM to 1.87 nM. Summed up:
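LL29 cells in F12 with 1% FBS were exposed to compound (11-point, 10 μM–1.87 nM, 0.1% DMSO) plus TGF-β1 20 ng/mL for 4 days at 37° C. Imaged αSMA-positive fraction of live (SYTOX-negative) cells, normalized to TGF-β1/DMSO wells; EC50 by non-linear regression of triplicates.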

For the compound `CCC(=O)Nc1cncc(-c2cnc3[nH]nc(-c4nc5c(-c6cccc(F)c6)nccc5[nH]4)c3c2)c1` [Compound 1, N-(5-(3-(4-(3-Fluorophenyl)-1H-imidazo[4,5-c]pyridin-2-yl)-1H-pyrazolo[3,4-b]pyridin-5-yl)pyridin-3-yl)propionamide], in experiment [1], the pIC50 was 8.24. Also, the EC (100% TGF-beta3 activity) in experiment [2] is 117 nM. The negative-log EC50 (pEC50) in experiment [3] was 7.21.
On the same counts, the results for `O=C(Nc1cncc(-c2cnc3[nH]nc(-c4nc5c(-c6ccc(F)cc6)nccc5[nH]4)c3c2)c1)C1CCC1` [Compound 46, N-(5-(3-(4-(4-Fluorophenyl)-1H-imidazo[4,5-c]pyridin-2-yl)-1H-pyrazolo[3,4-b]pyridin-5-yl)pyridin-3-yl)cyclobutanecarboxamide] are 8.30, 80.6 nM and 6.60.
In experiment [1], `Nc1cncc(-c2cnc3[nH]nc(-c4nc5c(-c6ccccc6F)nccc5[nH]4)c3c2)c1` [Compound 55, 5-(3-(4-(2-Fluorophenyl)-1H-imidazo[4,5-c]pyridin-2-yl)-1H-pyrazolo[3,4-b]pyridin-5-yl)pyridin-3-amine] gave a negative logarithm of the IC50 (pIC50) of 8.23. The EC (100% TGF-beta3 activity) in experiment [2] stood at 32.2 nM. The same compound gave a pEC50 in experiment [3] of 6.55.
Compound `Cc1cn(-c2nccc3[nH]c(-c4n[nH]c5ncc(-c6cncc(NC(=O)CC(C)C)c6)cc45)nc23)cn1` [Compound 184, 3-Methyl-N-(5-(3-(4-(4-methyl-1H-imidazol-1-yl)-1H-imidazo[4,5-c]pyridin-2-yl)-1H-pyrazolo[3,4-b]pyridin-5-yl)pyridin-3-yl)butanamide] showed a pIC50 in experiment [1] of 8.32. Besides, in experiment [2], the EC (100% TGF-beta3 activity) turned out to be 5.4 nM.
In experiment [1], `CCCC(=O)Nc1cncc(-c2cnc3[nH]nc(-c4nc5c(-c6ccsc6)nccc5[nH]4)c3c2)c1` [Compound 251, N-(5-(3-(4-(Thiophen-3-yl)-1H-imidazo[4,5-c]pyridin-2-yl)-1H-pyrazolo[3,4-b]pyridin-5-yl)pyridin-3-yl)butyramide] had a negative-log IC50 (pIC50) of 8.00. Besides, the EC (100% TGF-beta3 activity) in experiment [2] was 52.8 nM. Further, the pEC50 in experiment [3] was 7.14.
The compound `CC(C)Nc1cncc(-c2cnc3[nH]nc(-c4nc5c(-c6ccoc6)nccc5[nH]4)c3c2)c1` [Compound 272, 5-(3-(4-(Furan-3-yl)-1H-imidazo[4,5-c]pyridin-2-yl)-1H-pyrazolo[3,4-b]pyridin-5-yl)-N-isopropylpyridin-3-amine] gave a pIC50 in experiment [1] of 7.89. Besides, the EC (100% TGF-beta3 activity) in experiment [2] was determined as 72 nM. The compound also showed a pEC50 in experiment [3] of 8.05.
Take `O=C(Nc1cncc(-c2cnc3[nH]nc(-c4nc5c(-c6cccs6)nccc5[nH]4)c3c2)c1)C1CC1` [Compound 305, N-(5-(3-(4-(Thiophen-2-yl)-1H-imidazo[4,5-c]pyridin-2-yl)-1H-pyrazolo[3,4-b]pyridin-5-yl)pyridin-3-yl)cyclopropanecarboxamide]: the pIC50 in experiment [1] is 8.05. Moreover, the EC (100% TGF-beta3 activity) in experiment [2] is 54.9 nM.
Compound `Cc1ccc(-c2nccc3[nH]c(-c4n[nH]c5ncc(-c6cncc(N)c6)cc45)nc23)s1` [Compound 341, 5-(3-(4-(5-Methylthiophen-2-yl)-1H-imidazo[4,5-c]pyridin-2-yl)-1H-pyrazolo[3,4-b]pyridin-5-yl)pyridin-3-amine] gave a pIC50 in experiment [1] of 9.05. Further, in experiment [2], the EC (100% TGF-beta3 activity) turned out to be 58.2 nM. Further, in experiment [3], the negative logarithm of the EC50 (pEC50) is 8.05.
`CC(=O)c1ccc(-c2nccc3[nH]c(-c4n[nH]c5ncc(-c6cccnc6)cc45)nc23)s1` [Compound 368, 1-(5-(2-(5-(Pyridin-3-yl)-1H-pyrazolo[3,4-b]pyridin-3-yl)-1H-imidazo[4,5-c]pyridin-4-yl)thiophen-2-yl)ethan-1-one] had a pIC50 in experiment [1] of 7.98. Further, in experiment [2], the EC (100% TGF-beta3 activity) is 84.6 nM. For the same compound, the pEC50 in experiment [3] is 6.62.
On the same counts, the results for `Cc1ccncc1-c1cnc2[nH]nc(-c3nc4c(-c5cc(F)cc(CNS(C)(=O)=O)c5)nccc4[nH]3)c2c1` [Compound 395, N-(3-Fluoro-5-(2-(5-(4-methylpyridin-3-yl)-1H-pyrazolo[3,4-b]pyridin-3-yl)-1H-imidazo[4,5-c]pyridin-4-yl)benzyl)methanesulfonamide] are 8.10, 92.8 nM and 8.05.
In experiment [1], `CC(C)Nc1cncc(-c2cnc3[nH]nc(-c4nc5c(-c6cc(F)cc(NCCN(C)C)c6)nccc5[nH]4)c3c2)c1` [Compound 428, N^1-(3-Fluoro-5-(2-(5-(5-(isopropylamino)pyridin-3-yl)-1H-pyrazolo[3,4-b]pyridin-3-yl)-1H-imidazo[4,5-c]pyridin-4-yl)phenyl)-N^2,N^2-dimethylethane-1,2-diamine] had a pIC50 of 7.82. For the same compound, the EC (100% TGF-beta3 activity) in experiment [2] came to 82.9 nM. The same compound gave a pEC50 in experiment [3] of 7.70.
Regarding `Cn1cc(-c2cnc3[nH]nc(-c4nc5c(-c6cccc(F)c6)nccc5[nH]4)c3c2)cn1` [Compound 888, 3-(4-(3-Fluorophenyl)-1H-imidazo[4,5-c]pyridin-2-yl)-5-(1-methyl-1H-pyrazol-4-yl)-1H-pyrazolo[3,4-b]pyridine], the negative logarithm of the IC50 (pIC50) in experiment [1] was 7.92. Also, in experiment [2], the EC (100% TGF-beta3 activity) came out at 74.9 nM. In experiment [3], the pEC50 was 7.85.
Compound `Cc1ncc(-c2cnc3[nH]nc(-c4nc5c(-c6cccc(F)c6)nccc5[nH]4)c3c2)n1C` [Compound 889, 5-(1,2-Dimethyl-1H-imidazol-5-yl)-3-(4-(3-fluorophenyl)-1H-imidazo[4,5-c]pyridin-2-yl)-1H-pyrazolo[3,4-b]pyridine] showed a negative logarithm of the IC50 (pIC50) in experiment [1] of 7.92. Besides, the EC (100% TGF-beta3 activity) in experiment [2] stood at 152 nM. Also, the negative logarithm of the EC50 (pEC50) in experiment [3] is 8.05.
For the compound `Fc1cccc(-c2nccc3[nH]c(-c4n[nH]c5ncc(-c6ccncc6)cc45)nc23)c1` [Compound 900, 3-(4-(3-Fluorophenyl)-1H-imidazo[4,5-c]pyridin-2-yl)-5-(pyridin-4-yl)-1H-pyrazolo[3,4-b]pyridine], the negative logarithm of the IC50 (pIC50) in experiment [1] was below 5.00. In addition, in experiment [3], the negative-log EC50 (pEC50) was 8.05.
In the same order, the values of `Fc1cccc(-c2nccc3[nH]c(-c4n[nH]c5ncc(-c6cnccn6)cc45)nc23)c1` [Compound 902, 3-(4-(3-Fluorophenyl)-1H-imidazo[4,5-c]pyridin-2-yl)-5-(pyrazin-2-yl)-1H-pyrazolo[3,4-b]pyridine] are 6.15 and 8.05.
In the same order, the values of `CN(C)CC(=O)Nc1cncc(-c2cnc3[nH]nc(-c4nc5c(-c6cccc(F)c6)nccc5[nH]4)c3c2)c1` [Compound 1367, 2-(Dimethylamino)-N-(5-(3-(4-(3-fluorophenyl)-1H-imidazo[4,5-c]pyridin-2-yl)-1H-pyrazolo[3,4-b]pyridin-5-yl)pyridin-3-yl)acetamide] are 6.74 and 6.73.

As usually defined, the pIC50 is the negative decadic logarithm of the IC50, by convention in mol/L. What is called pEC50 is −log10 of the EC50, conventionally taken in molar units.
